Source: publication PMC7071059, “Targeting Receptor Tyrosine Kinase VEGFR-2 in Hepatocellular Cancer: Rational Design, Synthesis and Biological Evaluation of 1,2-Disubstituted Benzimidazoles” (Molecules, 2020)

Columns and labels:
Test in all cases: NCI 60 one dose (10 μM) anticancer assay
Assay type in all cases: cell-based
NCI-H522 = details: Homo sapiens, 10 µM one dose, Non-small cell lung Cancer, read-out: Growth Inhibition % NCI-H522
Description: (§1) Some of the synthesized compounds were selected by the NCI, Bethesda, MD, USA for evaluation of their anticancer activity. An in vitro one dose (10 μM) anticancer assay was conducted on a full NCI 60-cell line panel derived from 9 different cancer types. Table 2 presents the percent of growth inhibition of some cell lines. […] K-562 and MOLT-4 from leukemia, NCI-H522 from non-small cell lung cancer, HCT-116 from colon cancer, SK-MEL-5 and UACC-62 from melanoma, UO-31 from renal cancer, PC-3 from prostate cancer and HS 578T and T-47D from breast cancer are the most sensitive cell lines to the tested compounds. No growth inhibition was observed from the selected compounds against COLO205, HCC-2998, MALME-3M, SK-MEL-28, DU-145 and BT-549 cell lines. […] Against UO-31 from renal cancer and PC-3 from prostate cancer, it inhibited the growth of 44% and 58% of the cancer cells, respectively.

LOX IMVI = details: Homo sapiens, 10 µM one dose, Melanoma, read-out: Growth Inhibition % LOX IMVI
Description: as §1

A549/ATTC = details: Homo sapiens, 10 µM one dose, Non-small cell lung Cancer, read-out: Growth Inhibition % A549/ATTC
Description: as §1

KM12 = details: Homo sapiens, 10 µM one dose, Colon Cancer, read-out: Growth Inhibition % KM12
Description: as §1

CCRF-CEM = details: Homo sapiens, 10 µM one dose, Leukemia, read-out: Growth Inhibition % CCRF-CEM
Description: as §1

SNB-19 = details: Homo sapiens, 10 µM one dose, CNS Cancer, read-out: Growth Inhibition % SNB-19
Description: as §1

U251 = details: Homo sapiens, U-251; 10 µM one dose; CNS Cancer; read-out: Growth Inhibition % U251
Description: as §1

OVCAR-8 = details: Homo sapiens, 10 µM one dose, Ovarian Cancer, read-out: Growth Inhibition % OVCAR-8
Description: as §1

MDA-MB-468 = details: Homo sapiens, 10 µM one dose, Breast Cancer, read-out: Growth Inhibition % MDA-MB-468
Description: as §1

SNB-75 = details: Homo sapiens, 10 µM one dose, CNS Cancer, read-out: Growth Inhibition % SNB-75
Description: as §1

MOLT-4 = details: Homo sapiens, 10 µM one dose, Leukemia, read-out: Growth Inhibition % MOLT-4
Description: as §1

A498 = details: Homo sapiens, 10 µM one dose, Renal Cancer, read-out: Growth Inhibition % A498
Description: as §1

PC-3 = details: Homo sapiens, 10 µM one dose, Prostate Cancer, read-out: Growth Inhibition % PC-3
Description: as §1

HS 578T = details: Homo sapiens, 10 µM one dose, Breast Cancer, read-out: Growth Inhibition % HS 578T
Description: as §1

HCT-15 = details: Homo sapiens, 10 µM one dose, Colon Cancer, read-out: Growth Inhibition % HCT-15
Description: as §1

786-0 = details: Homo sapiens, 10 µM one dose, Renal Cancer, read-out: Growth Inhibition % 786-0
Description: as §1

RXF 393 = details: Homo sapiens, 10 µM one dose, Renal Cancer, read-out: Growth Inhibition % RXF 393
Description: as §1

HL-60(TB) = details: Homo sapiens, 10 µM one dose, Leukemia, read-out: Growth Inhibition % HL-60(TB)
Description: as §1

OVCAR-5 = details: Homo sapiens, 10 µM one dose, Ovarian Cancer, read-out: Growth Inhibition % OVCAR-5
Description: as §1

HCT-116 = details: Homo sapiens, 10 µM one dose, Colon Cancer, read-out: Growth Inhibition % HCT-116
Description: as §1

NCI-H322M = details: Homo sapiens, 10 µM one dose, Non-small cell lung Cancer, read-out: Growth Inhibition % NCI-H322M
Description: as §1

MDA-MB-435 = details: Homo sapiens, 10 µM one dose, Melanoma, read-out: Growth Inhibition % MDA-MB-435
Description: as §1

SF-268 = details: Homo sapiens, 10 µM one dose, CNS Cancer, read-out: Growth Inhibition % SF-268
Description: as §1

MCF7 = details: Homo sapiens, 10 µM one dose, Breast Cancer, read-out: Growth Inhibition % MCF7
Description: as §1

UACC-62 = details: Homo sapiens, 10 µM one dose, Melanoma, read-out: Growth Inhibition % UACC-62
Description: as §1

HOP-62 = details: Homo sapiens, 10 µM one dose, Non-small cell lung Cancer, read-out: Growth Inhibition % HOP-62
Description: as §1

MDA-MB-231/ATTC = details: Homo sapiens, 10 µM one dose, Breast Cancer, read-out: Growth Inhibition % MDA-MB-231/ATTC
Description: as §1

M14 = details: Homo sapiens, 10 µM one dose, Melanoma, read-out: Growth Inhibition % M14
Description: as §1

K-562 = details: Homo sapiens, K562; 10 µM one dose; Leukemia; read-out: Growth Inhibition % K-562
Description: as §1

SW-620 = details: Homo sapiens, 10 µM one dose, Colon Cancer, read-out: Growth Inhibition % SW-620
Description: as §1

| SMILES | inhibition at 10 µM (NCI-H522) | inhibition at 10 µM (LOX IMVI) | inhibition at 10 µM (A549/ATTC) | inhibition at 10 µM (KM12) | inhibition at 10 µM (CCRF-CEM) | inhibition at 10 µM (SNB-19) | inhibition at 10 µM (U251) | inhibition at 10 µM (OVCAR-8) | inhibition at 10 µM (MDA-MB-468) | inhibition at 10 µM (SNB-75) | inhibition at 10 µM (MOLT-4) | inhibition at 10 µM (A498) | inhibition at 10 µM (PC-3) | inhibition at 10 µM (HS 578T) | inhibition at 10 µM (HCT-15) | inhibition at 10 µM (786-0) | inhibition at 10 µM (RXF 393) | inhibition at 10 µM (HL-60(TB)) | inhibition at 10 µM (OVCAR-5) | inhibition at 10 µM (HCT-116) | other results |
| --- | --- | --- | --- | --- | --- | --- | --- | --- | --- | --- | --- | --- | --- | --- | --- | --- | --- | --- | --- | --- | --- |
| CC(C)c1nc2ccccc2n1CC(=O)N/N=C/c1ccc(OCc2ccccc2)cc1 [Compound 17c, (E)-N′-(4-(Benzyloxy)benzylidene)-2-(2-isopropyl-1H-benzo[d]imidazol-1-yl)acetohydrazide] | 26% | < 10% | < 10% | < 10% | < 10% | < 10% | < 10% | < 10% | < 10% | < 10% | 25% | < 10% | 17% | 16% | < 10% | < 10% | < 10% | < 10% | < 10% | 18% | inhibition at 10 µM (NCI-H322M): < 10%; inhibition at 10 µM (MDA-MB-435): < 10%; inhibition at 10 µM (SF-268): < 10%; inhibition at 10 µM (MCF7): < 10%; inhibition at 10 µM (UACC-62): 26%; inhibition at 10 µM (HOP-62): < 10%; inhibition at 10 µM (MDA-MB-231/ATTC): < 10%; inhibition at 10 µM (M14): < 10%; inhibition at 10 µM (K-562): 28%; inhibition at 10 µM (SW-620): < 10% |
| Cc1ccc(-c2nc3ccccc3n2CC(=O)N/N=C/c2ccc(OCc3ccccc3)cc2)o1 [Compound 17d, (E)-N′-(4-(Benzyloxy)benzylidene)-2-(2-(5-methylfuran-2-yl)-1H-benzo[d]imidazol-1-yl)acetohydrazide] | 27% | 17% | 23% | < 10% | < 10% | < 10% | < 10% | 20% | < 10% | 20% | 40% | 17% | 29% | 32% | 25% | < 10% | < 10% | 19% | < 10% | < 10% | inhibition at 10 µM (NCI-H322M): 20%; inhibition at 10 µM (MDA-MB-435): < 10%; inhibition at 10 µM (SF-268): 23%; inhibition at 10 µM (MCF7): 19%; inhibition at 10 µM (UACC-62): < 10%; inhibition at 10 µM (HOP-62): 17%; inhibition at 10 µM (MDA-MB-231/ATTC): 18%; inhibition at 10 µM (M14): < 10%; inhibition at 10 µM (K-562): 41%; inhibition at 10 µM (SW-620): < 10% |
| Cc1ccc(-c2nc3ccccc3n2CC(=O)N/N=C/c2cccc(OCc3ccccc3)c2)o1 [Compound 17b, (E)-N′-(3-(Benzyloxy)benzylidene)-2-(2-(5-methylfuran-2-yl)-1H-benzo[d]imidazol-1-yl)acetohydrazide] | 28% | 23% | 42% | 23% | 28% | 21% | 36% | 26% | 20% | 39% | 58% | 16% | 46% | 25% | 35% | 26% | 40% | 50% | 14% | 32% | inhibition at 10 µM (NCI-H322M): 21%; inhibition at 10 µM (MDA-MB-435): 21%; inhibition at 10 µM (SF-268): 37%; inhibition at 10 µM (MCF7): 48%; inhibition at 10 µM (UACC-62): 29%; inhibition at 10 µM (HOP-62): 15%; inhibition at 10 µM (MDA-MB-231/ATTC): 25%; inhibition at 10 µM (M14): 24%; inhibition at 10 µM (K-562): 54%; inhibition at 10 µM (SW-620): 13% |
| C/C(=N\NC(=O)Cn1c(C(C)C)nc2ccccc21)c1ccccc1 [Compound 14a, (E)-2-(2-Isopropyl-1H-benzo[d]imidazol-1-yl)-N′-(1-phenylethylidene)acetohydrazide] | < 10% | < 10% | < 10% | < 10% | 16% | < 10% | < 10% | < 10% | 29% | 18% | < 10% | 49% | < 10% | 24% | < 10% | < 10% | 33% | < 10% | 21% | < 10% | inhibition at 10 µM (NCI-H322M): < 10%; inhibition at 10 µM (MDA-MB-435): < 10%; inhibition at 10 µM (SF-268): < 10%; inhibition at 10 µM (MCF7): < 10%; inhibition at 10 µM (UACC-62): 13%; inhibition at 10 µM (HOP-62): < 10%; inhibition at 10 µM (MDA-MB-231/ATTC): < 10%; inhibition at 10 µM (M14): < 10%; inhibition at 10 µM (K-562): < 10%; inhibition at 10 µM (SW-620): 18% |
| CC(C)c1nc2ccccc2n1CC(=O)N/N=C/c1cccc(OCc2ccccc2)c1 [Compound 17a, (E)-N′-(3-(Benzyloxy)benzylidene)-2-(2-isopropyl-1H-benzo[d]imidazol-1-yl)acetohydrazide] | 33% | < 10% | 16% | < 10% | 41% | 22% | < 10% | < 10% | 47% | 15% | 50% | 17% | 58% | 20% | < 10% | 24% | < 10% | 32% | < 10% | 66% | inhibition at 10 µM (NCI-H322M): < 10%; inhibition at 10 µM (MDA-MB-435): < 10%; inhibition at 10 µM (SF-268): < 10%; inhibition at 10 µM (MCF7): < 10%; inhibition at 10 µM (UACC-62): 41%; inhibition at 10 µM (HOP-62): < 10%; inhibition at 10 µM (MDA-MB-231/ATTC): 25%; inhibition at 10 µM (M14): 16%; inhibition at 10 µM (K-562): 57%; inhibition at 10 µM (SW-620): < 10% |
